The subject of data set [1] is HEK293FT cells stably expressing FLAG-vector or FLAG-MAGE-A11. Put plainly: Cell viability alamarBlue assay, HEK293FT cells. In kind it is cell-based. The note with it: MAGE-A11 expressing HEK293FT cells versus vector control, 24 hours, listed as SJ521054. Here is the method: Cell viability Assay. To assess cell viability after SJ521054 treatment, 1×10^4 cells/ml were treated with SJ521054 (0-40 μM) and incubated for 24 hours prior to changing the media and adding alamarBlue (Thermo Fisher Scientific) and incubating for 4 hours at 37° C. Plates were read by measuring the fluorescence with excitation wavelength at 540 nm and emission wavelength at 590 nm on an Enspire plate reader.
(In general: Alamar Blue is a resazurin reagent that responds to reducing activity.)

The subject of data set [2] is PCF11 protein levels in HEK293FT cells. Put plainly: PCF11 degradation by MAGE-A11, immunoblotting in HEK293FT cells. It counts as cell-based. The note with it: 24 hours. As to the method: Cell culture and stable cell lines. HEK293FT, HeLa and DAOY cells were grown in DMEM (Gibco) supplemented with 10% (v/v) FBS (Hyclone), 2 mM L-glutamine, 100 units/ml penicillin, 100 units/ml streptomycin, and […] amphotericin B (Invitrogen). HEK293FT and DAOY cells were transfected with either HA-FLAG-vector, FLAG-MAGE-A11 wild-type or SBC mutants using Effectene (QIAGEN) according to the manufacturer's protocol in 6 cm^2 plates. After 48 hours, cells were selected with 1 μg/ml puromycin (Sigma) over 2 weeks.
(§1) Western Blotting and Antibodies. For western blotting, samples in SDS sample buffer were resolved on SDS-PAGE gels and then transferred to nitrocellulose membranes prior to blocking in TBST with 5% (w/v) milk powder or 3% (w/v) bovine serum albumin and probing with primary and secondary antibodies (GE Healthcare). Primary antibodies were: anti-Myc (Sigma, #C3956), anti-FLAG (Sigma, #F3165), anti-HUWE1 (Novus Biologicals, #NB 100-652), anti-PCF11 (Bethyl Laboratories, #A303-706A), anti-GAPDH (Cell Signaling Technology, #2118), anti-TRIM28 (Abcam, #ab22553), anti-AMPKa1 (Cell Signaling Technology, #2795) and anti-MMS19 (Proteintech, #16015-1-AP). Protein signal was visualized after addition of ECL detection reagent (GE Healthcare) according to manufacturer's instructions.

Data set [3] deals with MAGE-A11 binding to PCF11 in FLAG-MAGE-A11 HEK293FT cell lysates (Homo sapiens (Human), UniProt P43364). Put plainly: anti-FLAG pull-down (co-IP) of MAGE-A11:PCF11 in cell lysates. As to conditions: 100 μM, 24 hours, immunoblot for endogenous PCF11, listed as SJ521054. As to the method: Immunoprecipitation. HEK293FT cells were plated in 6 cm^2 plates and transfected 24 hours later with Effectene (QIAGEN) according to the manufacturer's protocol. After 48 hours, cells were washed and scraped in cold PBS, spun down and resuspended in lysis buffer (50 mM Tris pH 7.4, 150 mM NaCl, 1 mM DTT, 0.1% (v/v) Triton X-100, 10 mM N-Ethylmaleimide and 1× protease inhibitor cocktail (Sigma)). Cell lysates were incubated with appropriate antibodies overnight at 4° C. and then with protein A beads for 2 hours at 4° C. Beads were then washed with lysis buffer three times and eluted with 2×SDS sample buffer.
as §1
(In general: Immunoblotting shows a protein as a band on a membrane.)

Data set [4] is described as follows: Solubility assay (μSOL Evolution, UV). It counts as physicochemical. As to conditions: 18 h at RT in buffer. Here is the method:
Solubility assays were carried out on a Biomek FX lab automation workstation (Beckman Coulter, Inc., Fullerton, CA) using SOL Evolution software (pION Inc., Woburn, MA). The detailed method is described as follows. 10 μl of 10 mM compound stock (in DMSO) was added to 190 μl 1-propanol to make a reference stock plate. 5 μl from this reference stock plate were mixed with 70 μl 1-propanol and 75 μl citrate phosphate-buffered saline (PBS; isotonic) to make the reference plate, and the UV spectrum (250-500 nm) of the reference plate was read. 6 μl of 10 mM test compound stock was added to 594 μl buffer in a 96-well storage plate and mixed. The storage plate was sealed and incubated at RT for 18 h. The suspension was then filtered through a 96-well filter plate (pION Inc., Woburn, MA). 75 μl of filtrate was mixed with 75 μl 1-propanol to make the sample plate, and the UV spectrum of the sample plate was read. Calculations were carried out with μSOL Evolution software based on the area under the curve (AUC) of the UV spectrum of the sample and reference plates. All compounds were tested in triplicate.

Converted amounts (≈) assume the structure as drawn. “Also recorded” adds a separate entry of the source.

We go through one compound from patent publication US20240246941A1, “SUBSTITUTED 4-(3-AMINOPROP-1-YL)AMINOQUINOLINE ANALOGS AS MODULATORS OF MELANOMA-ASSOCIATED ANTIGEN 11 UBIQUITIN LIGASE” (ST. JUDE CHILDREN'S RESEARCH HOSPITAL, INC., priority 2020, published 2024).

Usually Solubility stands for how much of the substance goes into solution per volume. The low end stands for a poorly soluble substance, the high end for a readily soluble substance.

Chain of MAGE-A11 binding to PCF11 in FLAG-MAGE-A11 HEK293FT cell lysates (P43364 whole entry): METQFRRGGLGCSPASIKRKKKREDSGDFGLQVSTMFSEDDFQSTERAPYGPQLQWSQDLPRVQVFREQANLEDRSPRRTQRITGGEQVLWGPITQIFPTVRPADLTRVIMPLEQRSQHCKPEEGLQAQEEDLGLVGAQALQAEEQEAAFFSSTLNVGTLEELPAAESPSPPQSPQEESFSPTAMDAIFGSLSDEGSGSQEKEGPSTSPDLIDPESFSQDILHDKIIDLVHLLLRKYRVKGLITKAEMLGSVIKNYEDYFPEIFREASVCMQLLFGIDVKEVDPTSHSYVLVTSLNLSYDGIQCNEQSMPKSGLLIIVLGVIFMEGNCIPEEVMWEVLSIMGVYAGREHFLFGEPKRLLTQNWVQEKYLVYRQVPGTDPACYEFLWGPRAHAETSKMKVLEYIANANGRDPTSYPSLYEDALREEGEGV

For `FC(F)(F)c1ccc2c(NCCCNCc3ccc4[nH]ccc4c3)ccnc2c1` [SJ000521054-02, N^1-((1H-Indol-5-yl)methyl)-N^3-(7-(trifluoromethyl)quinolin-4-yl)propane-1,3-diamine], the cell viability result in data set [1] was “decreased the viability; also recorded: reduces viability of MAGE-A11 expressing HEK293FT cells”. For the same compound, the “PCF11 protein levels / PCF11 degradation by MAGE-A11” value in data set [2] (MAGE-A11 expressing HEK293FT cells, listed as SJ521054) is given as “blocks PCF11 degradation by MAGE-A11; also recorded: stabilized PCF11 protein levels”. Also, in data set [2] (vector control HEK293FT cells), the PCF11 protein levels result is recorded as “no effect”. The “MAGE-A11 binding to PCF11 in cell lysate (co-IP)” value in data set [3] is “inhibited MAGE-A11 binding to PCF11 in cell lysates”. The “Solubility” value in data set [4] came out at 26.48 µM (≈ 10.6 µg/mL).
